Converted amounts (≈) assume the structure as drawn. The source made the active and inactive calls. No cut-off for these calls is given here.
Assays:
[1] = target: T1, Outer-membrane lipoprotein carrier protein (Escherichia coli (strain K12)) (UniProt P61316); experiment: Inhibition of IPTG-stimulated Escherichia coli K-12 lolA at 4 fold MIC by microarray analysis
T1 sequence (whole entry): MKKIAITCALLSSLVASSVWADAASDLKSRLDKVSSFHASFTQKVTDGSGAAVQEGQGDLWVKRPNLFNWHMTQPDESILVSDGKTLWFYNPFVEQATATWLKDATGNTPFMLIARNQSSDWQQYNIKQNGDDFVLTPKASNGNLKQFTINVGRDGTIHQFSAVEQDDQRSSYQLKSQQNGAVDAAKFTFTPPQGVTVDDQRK

[2] = system: Escherichia coli; experiment: Antibacterial activity against Escherichia coli K-12 harboring lolA gene after 16 hrs by serial dilution method; assay type: functional; conditions: K-12, 16 h
[3] = target: T1, Outer-membrane lipoprotein carrier protein (Escherichia coli (strain K12)); experiment: Inhibition of IPTG-stimulated Escherichia coli K-12 lolA at 16 fold MIC after 16 hrs by spectrophotometry
[4] = system: Escherichia coli; experiment: Induction of Lpp accumulation in inner membrane of Escherichia coli K-12 MG1655 at 320 ug/ml after 20 mins by SDS-PAGE; assay type: functional, organism-based
[5] = system: Escherichia coli; experiment: Induction of Lpp accumulation in inner membrane of Escherichia coli K-12 MG1655 at 320 ug/ml after 20 mins by autoradiography; assay type: functional, organism-based
[6] = target: Outer-membrane lipoprotein carrier protein (Escherichia coli (strain K12), UniProt P61316); experiment: Binding affinity to Escherichia coli K-12 lolA expressed in Escherichia coli BL21(AI) by NMR spectrometry
[7] = target: Multidrug efflux pump subunit AcrB (Escherichia coli (strain K12)) (UniProt P31224); experiment: Binding affinity to Escherichia coli K-12 MC1061 acrB assessed as decrease in susceptibility to compound efflux at 2 to 128 ug/ml after 16 hrs by plate reader assay
[8] = system: Escherichia coli; experiment: Antibacterial activity against Escherichia coli K-12 MG1655 after 16 hrs by microbroth dilution method; assay type: functional; conditions: K-12 MG1655, 16 h
[9] = system: Escherichia coli; experiment: Antibacterial activity against Escherichia coli ATCC 25922 after 16 hrs by microbroth dilution method; assay type: functional; conditions: ATCC 25922, 16 h
[10] = system: Pseudomonas aeruginosa; experiment: Antibacterial activity against Pseudomonas aeruginosa PAO1 after 16 hrs by microbroth dilution method; assay type: functional; conditions: PAO1, 16 h
[11] = system: Stenotrophomonas maltophilia; experiment: Antibacterial activity against Stenotrophomonas maltophilia B22020 after 16 hrs by microbroth dilution method; assay type: functional; conditions: B22020, 16 h
[12] = system: Burkholderia cepacia; experiment: Antibacterial activity against Burkholderia cepacia B154408 after 16 hrs by microbroth dilution method; assay type: functional; conditions: B154408, 16 h
[13] = system: Bacillus subtilis; experiment: Antibacterial activity against Bacillus subtilis 168 after 16 hrs by microbroth dilution method; assay type: functional; conditions: subsp. subtilis str. 168, 16 h
[14] = system: Micrococcus luteus; experiment: Antibacterial activity against Micrococcus luteus after 16 hrs by microbroth dilution method; assay type: functional
[15] = system: Staphylococcus aureus; experiment: Antibacterial activity against Staphylococcus aureus after 16 hrs by microbroth dilution method; assay type: functional
[16] = system: HeLa; experiment: Cytotoxicity against human HeLa cells after 24 hrs by Cell Titre-Glo luminescent assay; assay type: cell-based
[17] = system: Candida albicans; experiment: Antifungal activity against Candida albicans after 16 hrs by microbroth dilution method; assay type: functional
[18] = system: Pseudomonas aeruginosa; experiment: Antibacterial activity against multidrug-resistant Pseudomonas aeruginosa PS216 after 16 hrs by microbroth dilution method; assay type: functional; conditions: PS216, 16 h
[19] = system: Pseudomonas aeruginosa; experiment: Antibacterial activity against multidrug-resistant Pseudomonas aeruginosa PS225 after 16 hrs by microbroth dilution method; assay type: functional; conditions: PS225, 16 h
[20] = system: Pseudomonas aeruginosa; experiment: Antibacterial activity against multidrug-resistant Pseudomonas aeruginosa PS232 after 16 hrs by microbroth dilution method; assay type: functional; conditions: PS232, 16 h
[21] = system: Pseudomonas aeruginosa; experiment: Antibacterial activity against multidrug-resistant Pseudomonas aeruginosa PS301 after 16 hrs by microbroth dilution method; assay type: functional; conditions: PS301, 16 h
[22] = system: Pseudomonas aeruginosa; experiment: Antibacterial activity against multidrug-resistant Pseudomonas aeruginosa PS364 after 16 hrs by microbroth dilution method; assay type: functional; conditions: PS364, 16 h
[23] = system: Pseudomonas aeruginosa; experiment: Antibacterial activity against multidrug-resistant Pseudomonas aeruginosa PS35823 after 16 hrs by microbroth dilution method; assay type: functional; conditions: PS35823, 16 h
[24] = system: Pseudomonas aeruginosa; experiment: Antibacterial activity against multidrug-resistant Pseudomonas aeruginosa PS36769 after 16 hrs by microbroth dilution method; assay type: functional; conditions: PS36769, 16 h
[25] = system: Pseudomonas aeruginosa; experiment: Antibacterial activity against multidrug-resistant Pseudomonas aeruginosa PS37619 after 16 hrs by microbroth dilution method; assay type: functional; conditions: PS37619, 16 h
[26] = system: Pseudomonas aeruginosa; experiment: Antibacterial activity against multidrug-resistant Pseudomonas aeruginosa PS37834 after 16 hrs by microbroth dilution method; assay type: functional; conditions: PS37834, 16 h
[27] = system: Pseudomonas aeruginosa; experiment: Antibacterial activity against multidrug-resistant Pseudomonas aeruginosa PS8534624 after 16 hrs by microbroth dilution method; assay type: functional; conditions: PS8534624, 16 h
[28] = system: Pseudomonas aeruginosa; experiment: Antibacterial activity against multidrug-resistant Pseudomonas aeruginosa PS8539204 after 16 hrs by microbroth dilution method; assay type: functional; conditions: PS8539204, 16 h
[29] = system: Pseudomonas aeruginosa; experiment: Antibacterial activity against multidrug-resistant Pseudomonas aeruginosa PAE231 after 16 hrs by microbroth dilution method; assay type: functional; conditions: PAE231, 16 h
[30] = system: Pseudomonas aeruginosa; experiment: Antibacterial activity against multidrug-resistant Pseudomonas aeruginosa PAE252 after 16 hrs by microbroth dilution method; assay type: functional; conditions: PAE252, 16 h
[31] = system: Pseudomonas aeruginosa; experiment: Antibacterial activity against multidrug-resistant Pseudomonas aeruginosa PAE287 after 16 hrs by microbroth dilution method; assay type: functional; conditions: PAE287, 16 h
[32] = system: Pseudomonas aeruginosa; experiment: Antibacterial activity against multidrug-resistant Pseudomonas aeruginosa PAE302 after 16 hrs by microbroth dilution method; assay type: functional; conditions: PAE302, 16 h
[33] = system: Pseudomonas aeruginosa; experiment: Antibacterial activity against multidrug-resistant Pseudomonas aeruginosa PAE349 after 16 hrs by microbroth dilution method; assay type: functional; conditions: PAE349, 16 h
[34] = target: T1, Outer-membrane lipoprotein carrier protein (Escherichia coli (strain K12)); experiment: Inhibition of IPTG-stimulated Escherichia coli K-12 lolA at 16 fold MIC by microarray analysis
[35] = target: T2, Outer membrane protein TolC (Escherichia coli (strain K12)) (UniProt P02930); experiment: Inhibition of IPTG-stimulated Escherichia coli K-12 tolC at 16 fold MIC by microarray analysis
T2 sequence (whole entry): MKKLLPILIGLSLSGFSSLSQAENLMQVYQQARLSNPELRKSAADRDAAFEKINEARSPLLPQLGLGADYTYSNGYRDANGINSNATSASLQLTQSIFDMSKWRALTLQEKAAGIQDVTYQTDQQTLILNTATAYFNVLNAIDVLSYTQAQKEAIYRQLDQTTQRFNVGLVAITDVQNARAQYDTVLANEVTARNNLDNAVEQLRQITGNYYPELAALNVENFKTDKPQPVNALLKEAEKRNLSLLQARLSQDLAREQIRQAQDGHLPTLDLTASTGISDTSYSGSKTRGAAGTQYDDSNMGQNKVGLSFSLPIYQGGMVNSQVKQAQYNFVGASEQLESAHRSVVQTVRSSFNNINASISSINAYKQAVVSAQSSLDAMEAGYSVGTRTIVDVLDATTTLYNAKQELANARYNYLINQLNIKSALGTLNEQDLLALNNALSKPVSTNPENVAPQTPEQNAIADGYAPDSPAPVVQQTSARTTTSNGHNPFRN

[36] = target: T1, Outer-membrane lipoprotein carrier protein (Escherichia coli (strain K12)); experiment: Inhibition of IPTG-stimulated Escherichia coli K-12 lolA at 8 fold MIC by microarray analysis
[37] = target: T2, Outer membrane protein TolC (Escherichia coli (strain K12)); experiment: Inhibition of IPTG-stimulated Escherichia coli K-12 tolC at 8 fold MIC by microarray analysis
[38] = target: T2, Outer membrane protein TolC (Escherichia coli (strain K12)); experiment: Inhibition of IPTG-stimulated Escherichia coli K-12 tolC at 4 fold MIC by microarray analysis

Chain of Multidrug efflux pump subunit AcrB (Escherichia coli (strain K12)) (P31224 whole entry): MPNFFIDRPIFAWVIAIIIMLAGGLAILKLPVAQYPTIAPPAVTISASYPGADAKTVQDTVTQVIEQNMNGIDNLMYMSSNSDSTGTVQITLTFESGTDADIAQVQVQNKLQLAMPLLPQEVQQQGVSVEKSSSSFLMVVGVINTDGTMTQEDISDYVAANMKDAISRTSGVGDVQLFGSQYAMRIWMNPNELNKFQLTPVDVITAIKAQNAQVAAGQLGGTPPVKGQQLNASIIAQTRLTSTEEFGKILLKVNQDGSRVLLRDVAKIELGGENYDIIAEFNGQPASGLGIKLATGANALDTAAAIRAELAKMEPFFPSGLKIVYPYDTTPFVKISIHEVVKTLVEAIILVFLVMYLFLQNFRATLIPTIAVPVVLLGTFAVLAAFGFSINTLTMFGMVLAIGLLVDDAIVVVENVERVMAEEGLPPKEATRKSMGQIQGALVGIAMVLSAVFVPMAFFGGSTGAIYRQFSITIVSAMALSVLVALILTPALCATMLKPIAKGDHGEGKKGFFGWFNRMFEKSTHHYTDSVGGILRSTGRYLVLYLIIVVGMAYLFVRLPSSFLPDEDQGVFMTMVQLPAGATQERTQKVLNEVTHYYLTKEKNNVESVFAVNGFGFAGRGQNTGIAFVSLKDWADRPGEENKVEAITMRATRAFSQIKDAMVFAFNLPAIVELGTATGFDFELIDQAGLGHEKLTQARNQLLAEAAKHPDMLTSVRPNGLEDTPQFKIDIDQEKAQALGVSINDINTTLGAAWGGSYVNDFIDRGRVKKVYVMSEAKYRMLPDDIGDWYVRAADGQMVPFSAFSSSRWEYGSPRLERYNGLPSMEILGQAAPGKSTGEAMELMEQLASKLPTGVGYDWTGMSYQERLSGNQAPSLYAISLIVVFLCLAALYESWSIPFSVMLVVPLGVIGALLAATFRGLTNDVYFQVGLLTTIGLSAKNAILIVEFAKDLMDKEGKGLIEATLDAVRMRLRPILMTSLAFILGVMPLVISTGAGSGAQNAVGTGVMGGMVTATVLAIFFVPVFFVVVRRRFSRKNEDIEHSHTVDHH

## COc1ccc(CCN2CN=C(SCc3ccc(Cl)cc3)NC2)cc1OC
[1]
  inhibition: Active
[2]
  MIC: 8 µg/mL (≈ 19.7 µM)
[3]
  inhibition: inactive
[4]
  Activity: Active
[5]
  Activity: Active
[6]
  Kd: 7.5 µM
[7]
  Activity: Active
[8]
  MIC: 16 µg/mL (≈ 39.4 µM)
[9]
  MIC: 16 µg/mL (≈ 39.4 µM)
[10]
  MIC: 4 µg/mL (≈ 9.85 µM)
[11]
  MIC: 8 µg/mL (≈ 19.7 µM)
[12]
  MIC: 128 µg/mL (≈ 315 µM)
[13]
  MIC: > 256 µg/mL
[14]
  MIC: > 256 µg/mL
[15]
  MIC: > 256 µg/mL
[16]
  Activity: > 256 µg/mL
[17]
  MIC: > 256 µg/mL
[18]
  MIC: 16 µg/mL (≈ 39.4 µM)
[19]
  MIC: 1 µg/mL (≈ 2.46 µM)
[20]
  MIC: 4 µg/mL (≈ 9.85 µM)
[21]
  MIC: 256 µg/mL (≈ 631 µM)
[22]
  MIC: 128 µg/mL (≈ 315 µM)
[23]
  MIC: 4 µg/mL (≈ 9.85 µM)
[24]
  MIC: 4 µg/mL (≈ 9.85 µM)
[25]
  MIC: 128 µg/mL (≈ 315 µM)
[26]
  MIC: 16 µg/mL (≈ 39.4 µM)
[27]
  MIC: 2 µg/mL (≈ 4.93 µM)
[28]
  MIC: 128 µg/mL (≈ 315 µM)
[29]
  MIC: 16 µg/mL (≈ 39.4 µM)
[30]
  MIC: 2 µg/mL (≈ 4.93 µM)
[31]
  MIC: 4 µg/mL (≈ 9.85 µM)
[32]
  MIC: 4 µg/mL (≈ 9.85 µM)
[33]
  MIC: 4 µg/mL (≈ 9.85 µM)
[34]
  inhibition: Active
[35]
  inhibition: Active
[36]
  inhibition: Active
[37]
  inhibition: Active
[38]
  inhibition: Active
